Source: US6485756B1, “Stable, homogeneous natural product extracts containing polar and apolar fractions” (Collaborative Technologies, Inc., priority 1999, dated 2002)
Values joined by “and” are separate entries in the source; they are usually repeats but may differ in a detail not shown here. Identical values can stand only once.

Legend:
Human Leukocyte Elastase = biological target: T1, Human Leukocyte Elastase (Homo sapiens, UniProt P08246); conditions: Ying et al., Biochem. J. 1991; cited from earlier work
T1 sequence (P08246 30-267): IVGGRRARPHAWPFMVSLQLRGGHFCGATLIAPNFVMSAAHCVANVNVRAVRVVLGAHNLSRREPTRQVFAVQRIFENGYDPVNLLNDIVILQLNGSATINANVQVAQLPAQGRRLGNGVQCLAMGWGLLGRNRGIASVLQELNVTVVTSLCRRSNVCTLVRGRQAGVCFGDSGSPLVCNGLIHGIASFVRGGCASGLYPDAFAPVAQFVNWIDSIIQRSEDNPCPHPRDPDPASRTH

Lipid Peroxidation assay = format: biochemical; conditions: for OD532 at indicated time (min) 0: 0 min; for OD532 at indicated time (min) 60: 60 min; for OD532 at indicated time (min) 120: 120 min; for OD532 at indicated time (min) 240: 240 min
Protocol: Lipid Peroxidation Assay Thiobarbituric acid (“TBA”; […]), sodium dodecyl sulfate ([…]), butylated hydroxytoluene (B1378), […]) and phosphate-buffered saline (“PBS”; 1000-3) were obtained from Sigma. Lecithin (429415) was obtained from Calbiochem. Ethanol (122898) was obtained from Aaper Alcohol and Chemical Co. Vitamin C (95209) was obtained from Fluka. Ferric chloride (AR5029) was obtained from Mallinckrodt. Optical densities were determined using a SpectraMax 250 spectrophotometer (Molecular Devices). Ultraviolet irradiation was performed using a model VWR […] Chromato-Vue transilluminator (VWR Scientific). The Lipid Peroxidation assay measures inhibition of UV-induced lipid oxidation. The reaction was performed at room temperature by irradiating liposome solutions, containing varying concentrations of test samples, with ultraviolet C light. The extent of lipid peroxidation induced by the UV light was determined by measuring the consequent production of malondialdehyde that results from breakdown of oxidized lipid. […] Vitamin C, a peroxyl radical scavenger, was included in each assay as a control for inhibition of lipid oxidation. Duplicate aliquots of the irradiation mixtures were harvested at several time points and their malondialdehyde contents were measured using the “thiobarbituric acid reaction”. […] The mixtures were heated at 100° C. for 15 minutes, cooled to room temperature and their absorbencies were read at 532 and 650 nm. The readings at 650 nm were subtracted from those at 532 nm to correct for turbidity. These corrected absorbencies were plotted as a function of irradiation time and the rate of lipid peroxidation was determined by linear regression curve fit.

Cloudman S91 melanocytes = assay: Melanocyte pigmentation assay; format: cell-based; conditions: conc. 30 μm; positive control
Protocol: Melanocyte Pigmentation Assay
The following materials were used in the melanocyte pigmentation assay. Cloudman S91 cells (36-1-38C8-16) were obtained from American Type Culture Collection. Dulbecco's Modified Eagle's Medium (“DMEM”; 11885-076), heat-inactivated horse serum (26050-088), heat-inactivated fetal bovine serum (10082-147) and 5000 units/ml penicillin/50 μg/ml streptomycin (15070-063) were obtained from Gibco BRL. Phosphate-buffered saline (PBS; 1000-3), dimethyl sulfoxide (D2650), hydroquinone (H9003), α-melanocyte stimulating hormone (M4135), trichloroacetic acid (T9159) and sodium hydroxide (S8045) were obtained from Sigma. Optical densities were determined using a Dynatech MR5000 spectrophotometer.
The melanocyte pigmentation assay measures a test sample's ability to inhibit pigmentation. […] After a 5-day treatment period with each condition tested in triplicate wells, the cells were harvested by washing with PBS and adding 5% trichloroacetic acid to each well. […] 200 μl of each digestion mixture was then transferred to a well of a 96-well microtiter plate and optical densities were read at 405 nm.
Inhibition of pigmentation is expressed as the percentage decrease in optical density compared to that for untreated cells (no test sample or hydroquinone). […]

[1] = tested on: Dopa Oxidase Activity of a Mushroom Tyrosinase; conditions: Shin et al., BBRC 1998; cited from earlier work

C[C@H]1[C@H](C)CC[C@]2(C(=O)O)CC[C@]3(C)C(=CC[C@@H]4[C@@]5(C)CC[C@H](O)C(C)(C)[C@@H]5CC[C@]43C)[C@H]12 [Ursolic acid]
elastase inhibition (in words) (Human Leukocyte Elastase): potent elastase inhibitor

O=C1O[C@H]([C@@H](O)CO)C(O)=C1O [Vitamin C]
% antioxidant effect (Lipid Peroxidation assay; Sample conc. 0.03 %): 82% and 90% | Rate of Lipid Peroxidation (Lipid Peroxidation assay; Sample conc. 0.03 %): 54 MOD532/min and 30 MOD532/min | OD532 at indicated time (min) 0 (Lipid Peroxidation assay; Sample conc. 0.03 %): 0.012 and 0.014 | OD532 at indicated time (min) 60 (Lipid Peroxidation assay; Sample conc. 0.03 %): 0.013 and 0.0125 | OD532 at indicated time (min) 120 (Lipid Peroxidation assay; Sample conc. 0.03 %): 0.016 and 0.014 | OD532 at indicated time (min) 240 (Lipid Peroxidation assay; Sample conc. 0.03 %): 0.025 and 0.0205 | % antioxidant effect (Lipid Peroxidation assay; Sample conc. 0.3 %): 97% and 99% | OD532 at indicated time (min) 0 (Lipid Peroxidation assay; Sample conc. 0.3 %): 0.011 | OD532 at indicated time (min) 60 (Lipid Peroxidation assay; Sample conc. 0.3 %): 0.012 and 0.011 | OD532 at indicated time (min) 120 (Lipid Peroxidation assay; Sample conc. 0.3 %): 0.013 and 0.011 | OD532 at indicated time (min) 240 (Lipid Peroxidation assay; Sample conc. 0.3 %): 0.012

Oc1ccc(O)cc1 [hydroquinone]
% inhibition (Cloudman S91 melanocytes): 28% | Culture pigmentation (OD405nm) mean (Cloudman S91 melanocytes): 0.747

Oc1cc(O)cc(/C=C/c2ccc(O)cc2O)c1 [oxyresveratrol]
tyrosinase inhibition (in words) [1]: very potent tyrosinase inhibitor
